From the RepoRT retention time repository (doi:10.1016/j.jhazmat.2019.121712)

Assay: Thermo Scientific Acclaim RSLC 120 C18, 100 × 2.1 mm, 2.2 µm, 30 °C; A: 90% water + 10% methanol + 0.01% formic acid + 5 mM ammonium formate; B: methanol + 0.01% formic acid + 5 mM ammonium formate; gradient (min/%B) 0.1/1 3/39 14/99.9 16/99.9
Settings: stereoisomer not certain

| SMILES | LC retention time |
| --- | --- |
| COC(=O)c1ccccc1S(=O)(=O)NC(=O)Nc1nc(C)cc(C)n1 | 6.92 min |
| Cc1cccc(Nc2ccncc2S(=O)(=O)NC(=O)NC(C)C)c1 | 6.67 min |
| N#CSCSc1nc2ccccc2s1 | 9.25 min |
| OC(CCN1CCCCC1)(c1ccccc1)C1CC2C=CC1C2 (configuration not stated) | 7.63 min |
| COC(=O)NC(C(=O)NC(Cc1ccccc1)C(O)CN(Cc1ccc(-c2ccccn2)cc1)NC(=O)C(NC(=O)OC)C(C)(C)C)C(C)(C)C (configuration not stated) | 10.9 min |
| CCNC1C2CCC(C2)C1c1ccccc1 (configuration not stated) | 6.08 min |
| NC(CO)C(=O)NNCc1ccc(O)c(O)c1O (configuration not stated) | 1.38 min |
| CC1CC(C)C(=O)C(C(O)CC2CC(=O)NC(=O)C2)C1 (configuration not stated) | 5.99 min |
| CC=C1N(C)C(C)CC1(c1ccccc1)c1ccccc1 (configuration not stated) | 6.38 min |
| CC12CCC(=O)C=C1CCC1C2CCC2(C)C(C(=O)CO)CCC12 (configuration not stated) | 13.7 min |
| CC(C)OC(=O)c1cc(C(=O)OC(C)C)cc([N+](=O)[O-])c1 | 12 min |
| CC(C)(C)C(NC(=O)c1nn(CC2CCCCC2)c2ccccc12)C(N)=O (configuration not stated) | 11.7 min |
| CSc1nc2ccccc2s1 | 9.79 min |
| O=C(O)C(c1ccccc1)C1CCCCN1 (configuration not stated) | 4.61 min |
| CC12CCC(=O)C=C1CCC1C2C(O)CC2(C)C1CCC2(O)C(=O)CO (configuration not stated) | 7.84 min |
| c1cc2c(c(NC3=NCCN3)c1)CCC2 | 4.76 min |
| CC(C)Nc1nc(NC(C)C)[nH]c(=O)n1 | 5.96 min |
| COc1cc(CCN)c(OC)cc1C | 5.34 min |
| CCN1CCCC1CNC(=O)c1cc(S(N)(=O)=O)ccc1OC (configuration not stated) | 2.94 min |
| CC=C1CC(C)C(C)(O)C(=O)OCC2=CCN(C)CCC(OC1=O)C2=O (configuration not stated) | 5.16 min |
| CC=C1CC(C)C(C)(O)C(=O)OCC2=CC[N+]3([O-])CCC(OC1=O)C23 (configuration not stated) | 5.07 min |
| Cc1cc(C2CC2)nc(Nc2ccccc2)n1 | 11 min |
| CN1CCN2c3ncccc3Cc3ccccc3C2C1 (configuration not stated) | 5.29 min |

| SMILES | LC retention time |
| --- | --- |
| CNCCN1C(=O)C(OC(C)=O)C(c2ccc(OC)cc2)Sc2ccccc21 (configuration not stated) | 7.21 min |
| CCCCCn1cc(C(=O)c2cccc3ccccc23)cc1-c1ccccc1C | 13.4 min |
| COc1ccccc1OCC(O)CO (configuration not stated) | 5.11 min |
| NCCCCC(NC(CCc1ccccc1)C(=O)O)C(=O)N1CCCC1C(=O)O (configuration not stated) | 3.98 min |
| COP(=S)(OC)Oc1ccc(S(C)(=O)=O)c(C)c1 | 7.57 min |
| Nc1ccc(S(=O)(=O)c2ccc(N)cc2)cc1 | 4.13 min |
| CNc1nc(NC(C)C)nc(SC)n1 | 8.17 min |
| CN1C2CCC1C(C(=O)O)C(OC(=O)c1ccccc1)C2 (configuration not stated) | 4.68 min |
| CN1CCCCC1Cn1cc(C(=O)C2C(C)(C)C2(C)C)c2ccccc21 (configuration not stated) | 8.81 min |
| CC(C(O)c1ccccc1)N(C)C (configuration not stated) | 3.73 min |
| CCCc1nn(C)c2c(=S)nc(-c3cc(C(=S)N4CCN(C)CC4)ccc3OCC)[nH]c12 | 11.5 min |
| COc1ccc2c(c1OC)C(=O)OC2C1c2c(cc3c(c2OC)OCO3)CCN1C (configuration not stated) | 6.96 min |
| CCN(C)C(=O)Oc1cccc(C(C)N(C)C)c1 (configuration not stated) | 4.74 min |
| COc1ccc2[nH]cc(CCN(C)C)c2c1 | 3.98 min |
| CC(CN(C)C)CN1c2ccccc2Sc2ccccc21 (configuration not stated) | 8.1 min |
| Nc1ncnc2nc[nH]c12 | 2.43 min |
| CCC(=O)C(CCN(C)C)(c1ccccc1)c1ccccc1 | 7.68 min |
| CC(C)(C)C(O)C(Oc1ccc(-c2ccccc2)cc1)n1cncn1 (configuration not stated) | 11.3 min |
| CCOP(=S)(OCC)N1C(=O)c2ccccc2C1=O | 10.2 min |
| CCC(C)C1OC2(C=CC1C)CC1CC(CC=C(C)C(OC3CC(OC)C(OC4CC(OC)C(NC)C(C)O4)C(C)O3)C(C)C=CC=C3COC4C(O)C(C)=CC(C(=O)O1)C34O)O2 (configuration not stated) | 12.4 min |
| NNCCc1ccccc1 | 3.71 min |
| O=C1N=CCC=N1 | 4.49 min |
| CC(N)Cc1ccc2[nH]ccc2c1 (configuration not stated) | 4.07 min |

| SMILES | LC retention time |
| --- | --- |
| CCCc1nn(C)c2c(=O)[nH]c(-c3cc(S(=O)(=O)N4CCN(Cc5ccccc5)CC4)ccc3OCC)nc12 | 11.5 min |
| Nc1ccc2c(c1)C(c1ccccc1)=NCC(=O)N2 | 4.78 min |
| COCC(=O)N(c1c(C)cccc1C)C(C)C(=O)OC (configuration not stated) | 8.22 min |
| CC(C)N(CCC(C(N)=O)(c1ccccc1)c1ccccn1)C(C)C (configuration not stated) | 4.74 min |
| CCCc1nn(C)c2c(=O)[nH]c(-c3cc(S(=O)(=O)N4CCN(C5CCCC5)CC4)ccc3OCC)nc12 | 9.01 min |
| CN(C)C(=S)SSC(=S)N(C)C | 6.8 min |
| Nc1ccc(N=Nc2ccccc2)c(N)n1 | 8.49 min |
| Cc1ccc(N=CN(C)C=Nc2ccc(C)cc2C)c(C)c1 | 13.3 min |
| CN(C)CCOC(C)(c1ccccc1)c1ccccn1 (configuration not stated) | 5.18 min |
| NC1Cc2cc3c(cc2C1)OCO3 | 3.81 min |
| CC(=O)CCCCn1c(=O)c2c(ncn2C)n(C)c1=O | 5.23 min |
| CCC1CN2CCC3(O)C(=Nc4cccc(OC)c43)C2CC1C(=COC)C(=O)OC (configuration not stated) | 5.95 min |
| CC1=C(C)S(=O)(=O)CCS1(=O)=O | 3.73 min |
| CNC(=O)Oc1cc(C)c(S(C)=O)c(C)c1 (configuration not stated) | 4.86 min |
| CCOC(=O)C(SP(=S)(OC)OC)c1ccccc1 (configuration not stated) | 10.7 min |
| CCNC(C)Cc1ccccc1 (configuration not stated) | 4.4 min |
| CCCCCn1cc(C(=O)c2cccc3ccccc23)c2ccc(OC)cc21 | 12.4 min |
| CCCCCn1cc(C(=O)c2cccc3ccccc23)c2cc(O)ccc21 | 11.3 min |
| NC(N)=NC(N)=NCCc1ccccc1 | 4.38 min |
| CC(C(=O)c1ccccc1)N1CCCC1 (configuration not stated) | 4.01 min |
| O=C(O)Cc1cccc2ccccc12 | 7.76 min |
| O=c1[nH]c2c(c(=O)n1C1CCCCC1)CCC2 | 8.27 min |
| CNc1nc(C)c(C)c(OC(=O)N(C)C)n1 | 5.89 min |

| SMILES | LC retention time |
| --- | --- |
| CON=C(C(=O)NC1C(=O)N2C(C(=O)O)=C(CSC(=O)c3ccco3)CSC12)c1csc(N)n1 (configuration not stated) | 5.44 min |
| CN1CCC23c4c5ccc(OCCN6CCOCC6)c4OC2C(O)C=CC3C1C5 (configuration not stated) | 2.73 min |
| CN(C)CCOCC(=O)NC12CC3CC(CC(C3)C1)C2 | 6.64 min |
| CCCCCn1nc(C(=O)c2cccc3ccccc23)c2ccccc21 | 13.1 min |
| CC12C=CC(=O)C=C1CCC1C2C(O)CC2(C)C1CCC2(O)C(=O)CO (configuration not stated) | 7.84 min |
| CC(C)(C)NCC(O)COc1cccc2c1CCC(=O)N2 (configuration not stated) | 3.91 min |
| CCN(CC)C(=O)NC1C=C2c3cccc4[nH]cc(c34)CC2N(C)C1 (configuration not stated) | 5.92 min |
| NC1CC1c1ccccc1 (configuration not stated) | 4.27 min |
| CCCCC1=NC2(CCCC2)C(=O)N1Cc1ccc(-c2ccccc2-c2nn[nH]n2)cc1 | 9.44 min |
| CCC(CO)NC(=O)C1C=C2c3cccc4[nH]cc(c34)CC2N(C)C1 (configuration not stated) | 4.34 min |
| NC(=O)c1cc[n+](CC2=C(C(=O)[O-])N3C(=O)C(NC(=O)Cc4cccs4)C3SC2)cc1 (configuration not stated) | 4.03 min |
| CNC(C)C(=O)c1ccc(OC)cc1 (configuration not stated) | 4.16 min |
| CC(C)C1(C)N=C(c2ncccc2C(=O)O)NC1=O (configuration not stated) | 4.1 min |
| Cc1cccc2n[nH]nc12 | 5.83 min |
| CCC(C)CC(C)N (configuration not stated) | 4.68 min |
| CC(=O)Oc1cccc2[nH]cc(CCN(C(C)C)C(C)C)c12 | 4.88 min |
| CNC(=O)Oc1cc(C)c(C)c(C)c1 | 8.1 min |
| Cc1ccccc1C(=O)Nc1cccc(OC(C)C)c1 | 9.62 min |
| Cc1ccsc1C(=CCCN1CCCC(C(=O)O)C1)c1sccc1C (configuration not stated) | 8.43 min |
| COP(=S)(OC)SCN1C(=O)c2ccccc2C1=O | 8.94 min |
| CCCCCn1cc(C(=O)NCc2ccccc2)c2ccccc21 | 11.2 min |
| Cc1ccc2n[nH]nc2c1 | 5.83 min |
| CCCN(CC)CC1COC2(CCC(C(C)(C)C)CC2)O1 (configuration not stated) | 9.32 min |

| SMILES | LC retention time |
| --- | --- |
| Cn1cnc2c1c(=O)[nH]c(=O)n2C | 3.28 min |
| CC(C)N(CCc1c[nH]c2cccc(O)c12)C(C)C | 4.34 min |
| CCc1cccc2c3c([nH]c12)C(CC)(CC(=O)O)OCC3 (configuration not stated) | 10.6 min |
| CCCCCn1cc(C(=O)Cc2cccc(OC)c2)c2ccccc21 | 11.6 min |
| CC(=O)C1CCC2C3CCC4=CC(=O)CCC4(C)C3CCC12C (configuration not stated) | 11.2 min |
| CCCCCn1nc(C(=O)Oc2cccc3cccnc23)c2ccccc21 | 11.4 min |
| Nc1c2c(nc3ccccc13)CCCC2 | 4.77 min |
| CNCCCC(C#N)(c1ccc(OC)c(OC)c1)C(C)C (configuration not stated) | 6.14 min |
| C=CC=CCC1=C(C)C(OC(=O)C2C(C=C(C)C(=O)OC)C2(C)C)CC1=O (configuration not stated) | 11.7 min |
| COc1cc(CCN)cc(OC)c1OC | 3.88 min |
| Cc1ccc(C(=O)c2cn(CCCCCO)c3ccccc23)c2ccccc12 | 10.6 min |
| CC(O)C1C(=O)N2C(C(=O)O)=C(SC3CNC(C(=O)N(C)C)C3)C(C)C12 (configuration not stated) | 10.6 min |
| CC(C)C1(C)N=C(c2nc3ccccc3cc2C(=O)O)NC1=O (configuration not stated) | 6.1 min |
| Cc1nccn1CC1CCc2c(c3ccccc3n2C)C1=O (configuration not stated) | 4.98 min |
| CCC(C)(C)C(=O)OC1CC(C)C=C2C=CC(C)C(CCC3CC(O)CC(=O)O3)C21 (configuration not stated) | 12.6 min |
| CCOC(=O)C1(c2ccccc2)CCN(C)CC1 | 5.28 min |
| O=C(Nc1ccccc1)Nc1cnns1 | 7.17 min |
| CCCCn1cc(C(=O)c2cccc3ccccc23)c2c(O)cccc21 | 12 min |
| CC1(C)C(C(=O)OC(C#N)c2cccc(Oc3ccccc3)c2)C1(C)C (configuration not stated) | 12.9 min |
| CCC(CO)NCCNC(CC)CO (configuration not stated) | 1.93 min |
